Patent publication US11938220B2, “Sustained-release anesthetic compositions and methods of preparation thereof” (TLC Biopharmaceuticals, Inc., priority 2018, dated 2024)

System: Sprague-Dawley rats after paw incision
Assay: Anesthetic effect in a paw incision rat model (Von Frey, 50% paw withdrawal threshold)
Assay type: in vivo
Conditions: intra-plantar injection after paw incision, 1.9 mg ropivacaine articles, 1.33 mg ER Bupivacaine per incision, 0.5 hour after injection
Excerpt: FIG. 1A is a graph depicting 50% paw withdrawal threshold by a Von Frey test; wherein an anesthetic composition in accordance with the present disclosure (Ropivacaine composition) is our test article and ropivacaine injectable solution (unformulated ropivacaine) and commercial extended release liposomal bupivacaine (ER Bupivacaine) are used as reference articles. Saline, Ropivacaine composition, Ropivacaine injectable solution, and ER Bupivacaine were intra-plantarly administered after paw incision; the error bars represent the standard error of mean (SEM); and *:P<0.05 when compared to ER Bupivacaine group; BBL=Before surgery baseline; ABL=After surgery baseline.
FIG. 1B is a graph depicting the percentage of maximum possible effects (% MPE), calculated from the 50% paw withdrawal threshold using the formula % MPE=(Thresholdaftertreatment−ABL)/(BBL−ABL)×100%; wherein the error bars represent the standard error of mean (SEM); *:P<0.05 when compared to ER Bupivacaine group. MPE over 30% is considered effective;
Sprague-Dawley rats were used for evaluating the anesthetic efficacy after paw incision as described in Pain. 1996 March; 64(3):493-501. […]
Before surgery baselines (BBL) of 27 rats were measured −1 to −3 days prior to surgery; after surgery baselines (ABL) of 27 rats were measured 30 minutes after surgery. […]

CCCN1CCCC[C@H]1C(=O)Nc1c(C)cccc1C [unformulated ropivacaine, ropivacaine]
50% paw withdrawal threshold at T=0.5 hour: 11.47 g
